Results: the NIST ThermoML archive (doi:10.1016/j.tca.2004.08.013)
Numbers after ± are expanded uncertainties.

Assay: xn = mol fraction of the nth substance listed
Settings: 101.3 kPa, Liquid

CCCCNCCCC [dibutylamine] + ClC(Cl)Cl
Settings	mass density, 303.15 K [kg/m3]	mass density, 313.15 K [kg/m3]	viscosity, 303.15 K [mPa·s]	viscosity, 313.15 K [mPa·s]
x1 = 0.0103	1455.46 ± 1.3	1433.69 ± 1.3	0.53 ± 0.008	0.48 ± 0.007
x1 = 0.0197	1441.84 ± 1.3	1420.36 ± 1.2	0.54 ± 0.008	0.489 ± 0.007
x1 = 0.0294	1428.11 ± 1.3	1406.9 ± 1.2	0.552 ± 0.008	0.493 ± 0.007
x1 = 0.0381	1415.97 ± 1.2	1394.99 ± 1.2	0.56 ± 0.008	0.502 ± 0.008
x1 = 0.0482	1401.96 ± 1.2	1381.38 ± 1.2	0.572 ± 0.008	0.51 ± 0.008
x1 = 0.0593	1387.11 ± 1.2	1366.85 ± 1.1	0.584 ± 0.008	0.516 ± 0.008
x1 = 0.0684	1375.09 ± 1.1	1355.19 ± 1.1	0.599 ± 0.009	0.528 ± 0.008
x1 = 0.0788	1361.57 ± 1.1	1342.11 ± 1.1	0.612 ± 0.009	0.535 ± 0.008
x1 = 0.0876	1350.35 ± 1.1	1331.13 ± 1.1	0.624 ± 0.009	0.542 ± 0.008

CCCNCCC [dipropylamine] + ClC(Cl)Cl
Settings	mass density, 303.15 K [kg/m3]	mass density, 313.15 K [kg/m3]	viscosity, 303.15 K [mPa·s]	viscosity, 313.15 K [mPa·s]
x1 = 0.0105	1457.85 ± 1.3	1435.95 ± 1.3	0.525 ± 0.008	0.473 ± 0.007
x1 = 0.0217	1444.32 ± 1.3	1422.68 ± 1.2	0.531 ± 0.008	0.476 ± 0.007
x1 = 0.0311	1433.19 ± 1.3	1411.78 ± 1.2	0.535 ± 0.008	0.48 ± 0.007
x1 = 0.0411	1421.35 ± 1.2	1400.29 ± 1.2	0.539 ± 0.008	0.483 ± 0.007
x1 = 0.051	1409.85 ± 1.2	1389.04 ± 1.2	0.544 ± 0.008	0.486 ± 0.007
x1 = 0.0608	1398.52 ± 1.2	1378.03 ± 1.1	0.548 ± 0.008	0.488 ± 0.007
x1 = 0.0708	1387.22 ± 1.2	1366.94 ± 1.1	0.552 ± 0.008	0.492 ± 0.007
x1 = 0.0808	1376 ± 1.1	1356.01 ± 1.1	0.558 ± 0.008	0.494 ± 0.007
x1 = 0.0914	1364.32 ± 1.1	1344.6 ± 1.1	0.561 ± 0.008	0.497 ± 0.007

CCCN [propan-1-amine] + ClC(Cl)(Cl)Cl
Settings	mass density, 303.15 K [kg/m3]	mass density, 313.15 K [kg/m3]	viscosity, 303.15 K [mPa·s]	viscosity, 313.15 K [mPa·s]
x1 = 0.0071	1569.84 ± 1.5	1550.16 ± 1.5	0.859 ± 0.012	0.761 ± 0.011
x1 = 0.0184	1561.86 ± 1.5	1542.3 ± 1.5	0.866 ± 0.012	0.763 ± 0.011
x1 = 0.0285	1554.57 ± 1.5	1535.07 ± 1.5	0.873 ± 0.012	0.764 ± 0.011
x1 = 0.0386	1547.37 ± 1.5	1527.92 ± 1.4	0.876 ± 0.012	0.765 ± 0.011
x1 = 0.0479	1540.78 ± 1.5	1521.37 ± 1.4	0.88 ± 0.012	0.768 ± 0.011
x1 = 0.0574	1533.92 ± 1.4	1514.52 ± 1.4	0.885 ± 0.012	0.77 ± 0.011
x1 = 0.0661	1527.48 ± 1.4	1508.11 ± 1.4	0.885 ± 0.012	0.772 ± 0.011
x1 = 0.0748	1521.24 ± 1.4	1501.94 ± 1.4	0.888 ± 0.012	0.774 ± 0.011
x1 = 0.0841	1514.3 ± 1.4	1495.14 ± 1.4	0.892 ± 0.012	0.775 ± 0.011
